Assay results published in US8574834B2, “Method for predicting the response to a therapy” (Index Pharmaceuticals AB, priority 2007, dated 2013).

System: Tsp1 gene
Assay: Tsp1 gene expression in PBMC after 48 hrs stimulation, real-time PCR
Assay type: cell-based, human
Conditions: 10^-6 M Dex, normalised to basal expression
From the text: FIG. 2 depicts the average value of expression level of Tsp1 gene in PBMC in response to 48 hrs stimulation with IDX0150 alone, Dex alone, or IDX0150 and Dex combination as quantified by real-time PCR. The experimental conditions and data handling were as described in FIG. 1 and Example 1.
FIG. 5 depicts the average value of expression level of Tsp1 gene in PBMC in response to 48 hrs stimulation with IDX0150 alone, Dex alone, or IDX0150 and Dex combination as quantified by real-time PCR. The experimental conditions and data handling were as described in FIG. 4 and Example 1.
Peripheral blood mononuclear cells (PMBC) were isolated from blood samples of seven steroid resistant asthma or ulcerative colitis patients and ten healthy volunteers by density gradient centrifugation using Ficoll-Paque Plus (Pharmacia Biotech), washed three times in buffered saline solution (PBS), and resuspended in complete RPMI 1640 (Sigma/Gibco) containing 15% heat inactivated fetal bovine serum (FCS) (Gibco, Life Technologies), 100 U/ml penicillin, 100 μg/ml streptomycin (Life Technologies), 2 mM L-glutamine (Sigma), gentamycin 25 ug/ml (Sigma) and 5 mM Hepes (Gibco, Life Technologies). Cells were counted using 0.4% Trypan blue solution (Sigma Aldrich). On average the yield of PBMC was in range of 60-120×10^6 cells per donor sample. […]

With `C[C@@H]1C[C@H]2[C@@H]3CCC4=CC(=O)C=C[C@]4(C)[C@@]3(F)[C@@H](O)C[C@]2(C)[C@@]1(O)C(=O)CO` [dexamethasone] the “induction of Tsp1” value was 3-5 fold.
